Source: ChEMBL document CHEMBL1122903, “Synthesis, in vitro [3H]prazosin displacement, and in vivo activity of 3-aryl-4,5,6,7-tetrahydropyrazolo[4,3-c]pyridines, a new class of antihypertensive agents” (J Med Chem, 1985)
Several values for one entry are separate records, joined by “and”; a condition that tells them apart may be missing. Equal entries are not always repeated. Each block holds one molecule with its values, some of them ahead of it.

Key:
[1] = system: Rattus norvegicus; assay: Antihypertensive activity on spontaneously hypertensive rats, when administered orally at a dose 15 mg/kg; assay type: functional; settings: route oral
[2] = molecular target: T1, Adrenergic receptor alpha-1 (Rattus norvegicus, UniProt P15823+P23944+P43140); assay: Ability to displace [3H]prazosin from postsynaptic alpha-1 adrenergic receptor of rat in vitro.; assay type: protein assay
T1 sequence (P15823 whole entry): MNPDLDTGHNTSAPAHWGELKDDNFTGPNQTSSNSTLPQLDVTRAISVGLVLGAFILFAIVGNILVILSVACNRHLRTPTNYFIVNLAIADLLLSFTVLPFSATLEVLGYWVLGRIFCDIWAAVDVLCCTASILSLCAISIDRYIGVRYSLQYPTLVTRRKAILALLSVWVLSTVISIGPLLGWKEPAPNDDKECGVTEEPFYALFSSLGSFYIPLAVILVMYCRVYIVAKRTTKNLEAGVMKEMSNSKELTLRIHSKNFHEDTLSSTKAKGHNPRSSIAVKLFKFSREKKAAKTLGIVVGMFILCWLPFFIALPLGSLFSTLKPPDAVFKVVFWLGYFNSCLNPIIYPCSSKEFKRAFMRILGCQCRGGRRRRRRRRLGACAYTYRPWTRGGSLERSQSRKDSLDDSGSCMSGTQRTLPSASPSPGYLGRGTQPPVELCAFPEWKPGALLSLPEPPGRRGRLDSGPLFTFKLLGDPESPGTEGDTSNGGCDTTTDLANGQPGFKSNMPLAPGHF
T1 sequence (P23944 whole entry): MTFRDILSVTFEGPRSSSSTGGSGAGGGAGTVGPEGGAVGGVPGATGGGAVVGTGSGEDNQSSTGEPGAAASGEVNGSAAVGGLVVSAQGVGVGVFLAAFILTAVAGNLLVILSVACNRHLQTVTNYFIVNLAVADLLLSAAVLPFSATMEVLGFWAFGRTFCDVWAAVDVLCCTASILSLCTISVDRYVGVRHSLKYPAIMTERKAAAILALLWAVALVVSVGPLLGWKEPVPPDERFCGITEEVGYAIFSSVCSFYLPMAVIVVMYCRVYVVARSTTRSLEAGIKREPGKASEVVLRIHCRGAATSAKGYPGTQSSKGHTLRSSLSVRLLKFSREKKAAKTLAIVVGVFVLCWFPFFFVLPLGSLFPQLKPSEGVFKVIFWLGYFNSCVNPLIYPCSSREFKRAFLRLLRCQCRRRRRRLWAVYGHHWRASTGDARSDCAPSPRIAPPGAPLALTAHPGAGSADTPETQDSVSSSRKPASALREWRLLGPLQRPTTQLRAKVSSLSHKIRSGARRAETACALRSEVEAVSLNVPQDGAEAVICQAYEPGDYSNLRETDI
T1 sequence (P43140 whole entry): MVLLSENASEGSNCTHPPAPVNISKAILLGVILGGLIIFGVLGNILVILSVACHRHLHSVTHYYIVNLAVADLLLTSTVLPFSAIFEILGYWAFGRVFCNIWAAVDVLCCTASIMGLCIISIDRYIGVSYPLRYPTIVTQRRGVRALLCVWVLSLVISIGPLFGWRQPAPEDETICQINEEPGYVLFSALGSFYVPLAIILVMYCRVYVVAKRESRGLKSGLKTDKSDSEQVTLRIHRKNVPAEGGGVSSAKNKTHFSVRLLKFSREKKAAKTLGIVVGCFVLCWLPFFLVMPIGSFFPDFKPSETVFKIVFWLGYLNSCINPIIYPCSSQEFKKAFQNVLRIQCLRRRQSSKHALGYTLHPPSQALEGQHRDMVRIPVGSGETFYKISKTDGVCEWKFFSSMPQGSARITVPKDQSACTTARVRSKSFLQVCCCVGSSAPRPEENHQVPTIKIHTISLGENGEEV

[3] = system: Canis familiaris; assay: Peak effect after 2-4 hours systolic blood pressure after 7 days of oral administration in renal hypertensive dogs at dose 0.3 mg/kg; assay type: functional, Canis lupus familiaris, Artery
[4] = system: Canis familiaris; assay: Systolic blood pressure after 4 hr of oral administration in renal hypertensive dogs at dose 0.3 mg/kg; assay type: functional, Canis lupus familiaris
[5] = system: Canis familiaris; assay: Systolic blood pressure after 4 hr of oral administration in renal hypertensive dogs at dose 0.5 mg/kg; assay type: functional, Canis lupus familiaris
[6] = system: Canis familiaris; assay: Heart rate after 4 hours of oral administration in renal hypertensive dogs at dose 0.1 mg/kg; assay type: functional, Canis lupus familiaris
[7] = system: Canis familiaris; assay: Systolic blood pressure after 4 hr of oral administration in renal hypertensive dogs at dose 0.1 mg/kg; assay type: functional, Canis lupus familiaris
[8] = system: Canis familiaris; assay: Heart rate after 8 hours of oral administration in renal hypertensive dogs at dose 0.1 mg/kg; assay type: functional, Canis lupus familiaris
[9] = system: Canis familiaris; assay: Systolic blood pressure after 6 hr of oral administration in renal hypertensive dogs at dose 0.1 mg/kg; assay type: functional, Canis lupus familiaris
[10] = system: Canis familiaris; assay: Systolic blood pressure after 8 hr of oral administration in renal hypertensive dogs at dose 0.1 mg/kg; assay type: functional, Canis lupus familiaris
[11] = system: Canis familiaris; assay: Heart rate after 8 hours of oral administration in renal hypertensive dogs at dose 0.3 mg/kg; assay type: functional, Canis lupus familiaris
[12] = system: Canis familiaris; assay: Systolic blood pressure after 0 hours of oral administration in renal hypertensive dogs at dose 0.3 mg/kg; assay type: functional, Canis lupus familiaris
[13] = system: Canis familiaris; assay: Heart rate after 2 hours of oral administration in renal hypertensive dogs at dose 0.3 mg/kg; assay type: functional, Canis lupus familiaris
[14] = system: Canis familiaris; assay: Systolic blood pressure after 6 hr of oral administration in renal hypertensive dogs at dose 0.3 mg/kg; assay type: functional, Canis lupus familiaris
[15] = system: Canis familiaris; assay: Systolic blood pressure after 2 hours of oral administration in renal hypertensive dogs at dose 0.3 mg/kg; assay type: functional, Canis lupus familiaris
[16] = system: Canis familiaris; assay: Systolic blood pressure after 8 hr of oral administration in renal hypertensive dogs at dose 0.5 mg/kg; assay type: functional, Canis lupus familiaris
[17] = system: Canis familiaris; assay: Systolic blood pressure after 8 hr of oral administration in renal hypertensive dogs at dose 0.3 mg/kg; assay type: functional, Canis lupus familiaris
[18] = system: Canis familiaris; assay: Heart rate after 0 hours of oral administration in renal hypertensive dogs at dose 0.5 mg/kg; assay type: functional, Canis lupus familiaris
[19] = system: Canis familiaris; assay: Heart rate after 0 hours of oral administration in renal hypertensive dogs at dose 0.3 mg/kg; assay type: functional, Canis lupus familiaris
[20] = system: Canis familiaris; assay: Heart rate after 4 hours of oral administration in renal hypertensive dogs at dose 0.3 mg/kg; assay type: functional, Canis lupus familiaris
[21] = system: Canis familiaris; assay: Heart rate after 6 hours of oral administration in renal hypertensive dogs at dose 0.3 mg/kg; assay type: functional, Canis lupus familiaris
[22] = system: Canis familiaris; assay: Heart rate after 2 hours of oral administration in renal hypertensive dogs at dose 0.5 mg/kg; assay type: functional, Canis lupus familiaris
[23] = system: Canis familiaris; assay: Heart rate after 6 hours of oral administration in renal hypertensive dogs at dose 0.1 mg/kg; assay type: functional, Canis lupus familiaris
[24] = system: Canis familiaris; assay: Peak effect after 2-4 hours systolic blood pressure after 3 days of oral administration in renal hypertensive dogs at dose 0.3 mg/kg; assay type: functional, Canis lupus familiaris, Artery
[25] = system: Canis familiaris; assay: Systolic blood pressure after 6 hr of oral administration in renal hypertensive dogs at dose 0.5 mg/kg; assay type: functional, Canis lupus familiaris
[26] = system: Canis familiaris; assay: Peak effect after 2-4 hours systolic blood pressure after 1 days of oral administration in renal hypertensive dogs at dose 0.3 mg/kg; assay type: functional, Canis lupus familiaris, Artery
[27] = system: Canis familiaris; assay: Systolic blood pressure after 2 hr of oral administration in renal hypertensive dogs at dose 0.5 mg/kg; assay type: functional, Canis lupus familiaris
[28] = system: Canis familiaris; assay: Systolic blood pressure after 2 hours of oral administration in renal hypertensive dogs at dose 0.1 mg/kg; assay type: functional, Canis lupus familiaris
[29] = system: Canis familiaris; assay: Peak effect after 2-4 hours systolic blood pressure after 2 day of oral administration in renal hypertensive dogs at dose 0.3 mg/kg; assay type: functional, Canis lupus familiaris, Artery
[30] = system: Canis familiaris; assay: Heart rate after 2 hours of oral administration in renal hypertensive dogs at dose 0.1 mg/kg; assay type: functional, Canis lupus familiaris
[31] = system: Canis familiaris; assay: Heart rate after 8 hours of oral administration in renal hypertensive dogs at dose 0.5 mg/kg; assay type: functional, Canis lupus familiaris
[32] = system: Canis familiaris; assay: Heart rate after 0 hours of oral administration in renal hypertensive dogs at dose 0.1 mg/kg; assay type: functional, Canis lupus familiaris
[33] = system: Canis familiaris; assay: Systolic blood pressure after 0 hours of oral administration in renal hypertensive dogs at dose 0.1 mg/kg; assay type: functional, Canis lupus familiaris
[34] = system: Canis familiaris; assay: Heart rate after 6 hours of oral administration in renal hypertensive dogs at dose 0.5 mg/kg; assay type: functional, Canis lupus familiaris
[35] = system: Canis familiaris; assay: Systolic blood pressure after 0 hours of oral administration in renal hypertensive dogs at dose 0.5 mg/kg; assay type: functional, Canis lupus familiaris
[36] = system: Canis familiaris; assay: Heart rate after 4 hours of oral administration in renal hypertensive dogs at dose 0.5 mg/kg; assay type: functional, Canis lupus familiaris

Ki [2]: 145 nM
SMILES: Cl.Clc1ccc(-c2[nH]nc3c2CNCC3)cc1
Delta p [1]: 0%

SMILES: COc1cc2nc(N3CCN(C(=O)c4ccco4)CC3)nc(N)c2cc1OC [PRAZOSIN]
Blood pressure [3]: 100% | Blood pressure [4]: 160 mmHg | Blood pressure [5]: 125 mmHg | Heart rate [6]: 94% | Blood pressure [7]: 180 mmHg | Heart rate [8]: 106% | Blood pressure [9]: 193 mmHg | Blood pressure [10]: 196 mmHg | Heart rate [11]: 100% | Blood pressure [12]: 202 mmHg | Heart rate [13]: 114% | Blood pressure [14]: 165 mmHg | Blood pressure [15]: 182 mmHg | Blood pressure [16]: 150 mmHg | Blood pressure [17]: 180 mmHg | Heart rate [18]: 86 beats min-1 | Heart rate [19]: 110 beats min-1 | Heart rate [20]: 100% | Heart rate [21]: 90% | Heart rate [22]: 94 beats min-1 | Heart rate [23]: 96% | Blood pressure [24]: 96% | Blood pressure [25]: 125 mmHg | Blood pressure [26]: 96% | Blood pressure [27]: 135 mmHg | Blood pressure [28]: 186 mmHg | Blood pressure [29]: 100% and 92% | Heart rate [30]: 92% | Heart rate [31]: 82 beats min-1 | Heart rate [32]: 104 beats min-1 | Blood pressure [33]: 205 mmHg | Heart rate [34]: 78 beats min-1 | Blood pressure [35]: 190 mmHg | Heart rate [36]: 82%
